From patent US11912693B2, “Compounds for modulating S1P1 activity and methods of using the same” (TREVENA, INC., priority 2017, dated 2024)

Tests used:
[1] = biological target: T1, human sphingosine-1-phosphate receptor 1 (S1P1) (Homo sapiens (Human), UniProt P21453); experiment: Inhibition of cAMP production (HTRF cAMP HiRange), S1P1 CHO-K1 cells; format: cell-based; settings: for Emax: CHO-K1, efficacy (SPAN) normalized to fingolimod, read-out: hS1P1 cAMP SPAN
Outline: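 CHO-K1 cells stably co-expressing human S1P1 (C-terminal Prolink tag) and EA-β-arrestin2 were grown in AssayComplete Media 6 at 37° C. and 5% CO2, plated, and incubated overnight. Agonist-driven inhibition of intracellular cAMP was read by TR-FRET with the HTRF cAMP HiRange kit on a PheraStar reader. Potency is pEC50, and efficacy (SPAN) is normalized to fingolimod.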
Target sequence in this assay (P21453 whole entry, looked up): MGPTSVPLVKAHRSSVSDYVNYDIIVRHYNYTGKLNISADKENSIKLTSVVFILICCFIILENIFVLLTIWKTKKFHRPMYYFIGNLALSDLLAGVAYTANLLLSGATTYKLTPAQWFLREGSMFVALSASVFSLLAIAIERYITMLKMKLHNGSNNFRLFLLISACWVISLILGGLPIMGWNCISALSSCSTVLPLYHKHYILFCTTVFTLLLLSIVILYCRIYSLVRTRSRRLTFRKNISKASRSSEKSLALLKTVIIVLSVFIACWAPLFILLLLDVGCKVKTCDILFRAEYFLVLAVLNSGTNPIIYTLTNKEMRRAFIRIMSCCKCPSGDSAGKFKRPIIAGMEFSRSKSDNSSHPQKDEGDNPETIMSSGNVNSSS

[2] = biological target: T1, human sphingosine-1-phosphate receptor 1 (S1P1); experiment: β-Arrestin2 recruitment assay (PathHunter), S1P1 CHO-K1 cells; format: cell-based; settings: for Emax: CHO-K1, efficacy (SPAN) normalized to fingolimod, read-out: hS1P1 B-arrestin2 SPAN
Outline: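 Enzyme-fragment complementation read-out: agonist-driven β-arrestin2 binding to ProLink-tagged human S1P1 in stable CHO-K1 cells restores β-galactosidase, measured 1 h at room temperature after a 60 min 37° C. compound incubation. Potency as pEC50, efficacy relative to fingolimod (SPAN).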
Target sequence in this assay (P21453 whole entry, looked up): as above
Target sequence in this assay (P32121 whole entry partner, looked up): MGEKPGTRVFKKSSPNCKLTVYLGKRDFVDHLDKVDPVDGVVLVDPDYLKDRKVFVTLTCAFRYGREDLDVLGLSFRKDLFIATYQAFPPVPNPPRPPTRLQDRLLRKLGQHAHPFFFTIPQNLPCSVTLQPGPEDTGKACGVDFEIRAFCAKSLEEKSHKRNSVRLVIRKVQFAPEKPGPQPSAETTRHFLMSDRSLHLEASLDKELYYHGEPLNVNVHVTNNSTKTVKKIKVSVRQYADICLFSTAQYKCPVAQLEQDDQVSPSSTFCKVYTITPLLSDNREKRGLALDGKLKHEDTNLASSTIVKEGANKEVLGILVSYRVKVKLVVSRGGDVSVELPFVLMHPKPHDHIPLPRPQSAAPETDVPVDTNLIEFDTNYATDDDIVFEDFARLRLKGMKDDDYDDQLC

[3] = inhibition of cAMP production, S1P1 CHO-K1 cells
[4] = β-arrestin2 recruitment, S1P1 CHO-K1 cells

Compound | hS1P1 cAMP pEC50 [1, 3] | hS1P1 B-arrestin2 pEC50 [2, 4] | Emax [1] | Emax [2] | EC50 ([1]; inhibition of cAMP production, S1P1 CHO-K1 cells, read-out: hS1P1 cAMP pEC50 (converted)) | EC50 ([2]; β-arrestin2 recruitment, S1P1 CHO-K1 cells, read-out: hS1P1 B-arrestin2 pEC50 (converted))
CCC1(CC)CC(=O)c2cc(-c3nc(-c4ccncc4F)no3)ccc2O1 [Compound 226, 2,2-diethyl-6-(3-(3-fluoropyridin-4-yl)-1,2,4-oxadiazol-5-yl)chroman-4-one] | <6.5 | <5 |  |  |  | 
CCC1(CC)CC(=O)c2cc(-c3nc(-c4cccc(O)c4)no3)ccc2O1 [Compound 227, 2,2-diethyl-6-[3-(3-hydroxyphenyl)-1,2,4-oxadiazol-5-yl]chroman-4-one] | >6.5 | <5 |  |  |  | 
COc1ccccc1-c1noc(-c2ccc3c(c2)nnn3C2CCOCC2)n1 [Compound 231, 5-[3-(2-methoxyphenyl)-1,2,4-oxadiazol-5-yl]-1-(oxan-4-yl)-1H-1,2,3-benzotriazole] | <6.5 | <5 | < 75% | < 75% |  | 
Fc1ccc(-c2noc(-c3ccc4c(c3)nnn4C3CCCC3)n2)cc1 [Compound 232, 1-cyclopentyl-5-[3-(4-fluorophenyl)-1,2,4-oxadiazol-5-yl]-1H-1,2,3-benzotriazole] | <6.5 | <5 | < 75% | < 75% |  | 
Brc1ccccc1-c1noc(-c2ccc3c(c2)nnn3C2CCOCC2)n1 [Compound 233, 5-[3-(2-bromophenyl)-1,2,4-oxadiazol-5-yl]-1-(oxan-4-yl)-1H-1,2,3-benzotriazole] | <6.5 | <5 | < 75% | < 75% |  | 
Cc1ccc(-c2nc(-c3ccc4c(c3)nnn4C3CCCC3)no2)cc1 [Compound 235, 3-(1-cyclopentyl-1H-benzo[d][1,2,3]triazol-5-yl)-5-(p-tolyl)-1,2,4-oxadiazole] | <6.5 | <5 |  |  |  | 
CSc1ccc(-c2nc(-c3ccc4c(c3)nnn4C3CCCC3)no2)cc1 [Compound 237, 3-(1-cyclopentyl-1H-benzo[d][1,2,3]triazol-5-yl)-5-(4-(methylthio)phenyl)-1,2,4-oxadiazole] | <6.5 | <5 | < 75% | < 75% |  | 
OCCn1nnc2cc(-c3noc(-c4ccccc4Br)n3)ccc21 [Compound 238, 2-(5-(5-(2-bromophenyl)-1,2,4-oxadiazol-3-yl)-1H-benzo[d][1,2,3]triazol-1-yl)ethanol] | <6.5 | <5 | < 75% | < 75% |  | 
Cc1ccsc1-c1noc(-c2ccc3c(c2)nnn3CC2CC2)n1 [Compound 239, 1-(cyclopropylmethyl)-5-[3-(3-methylthiophen-2-yl)-1,2,4-oxadiazol-5-yl]-1H-1,2,3-benzotriazole] | <6.5 | <5 | < 75% | < 75% |  | 
Cc1ccccc1-c1noc(-c2ccc3c(c2)nnn3C2CCCCC2)n1 [Compound 245, 1-cyclohexyl-5-[3-(2-methylphenyl)-1,2,4-oxadiazol-5-yl]-1H-1,2,3-benzotriazole] | <6.5 | >5 | > 75% | > 75% |  | 
Cc1oc(-c2ccc3c(c2)nnn3C(C)C)nc1-c1ccccc1 [Compound 247, 5-(5-methyl-4-phenyl-1,3-oxazol-2-yl)-1-(propan-2-yl)-1H-1,2,3-benzotriazole] | <6.5 | <5 | < 75% | < 75% |  | 
Cc1ccsc1-c1noc(-c2ccc3c(c2)nnn3C(C)(C)C)n1 [Compound 253, 1-tert-butyl-5-[3-(3-methylthiophen-2-yl)-1,2,4-oxadiazol-5-yl]-1H-1,2,3-benzotriazole] |  |  | > 75% | > 75% | < 316 nM | < 10 µM
CC1(C)CCC2(CC1)CC(=O)c1cc(-c3nc(-c4ccncc4)no3)ccc1O2 [Compound 254, 4′,4′-dimethyl-6-[3-(pyridin-4-yl)-1,2,4-oxadiazol-5-yl]-3,4-dihydrospiro[1-benzopyran-2,1′-cyclohexane]-4-one] | >6.5 | <5 | < 75% | < 75% |  | 
CCC1(CC)CC(=O)c2cc(-c3nc(-c4ccc(N)cc4)no3)ccc2O1 [Compound 256, 6-(3-(4-aminophenyl)-1,2,4-oxadiazol-5-yl)-2,2-diethylchroman-4-one] | >6.5 | >5 | > 75% | > 75% |  | 

The remaining lines, values ahead:

hS1P1 cAMP pEC50 [1, 3] | hS1P1 B-arrestin2 pEC50 [2, 4] | Emax [1] | Emax [2] | EC50 ([1]; inhibition of cAMP production, S1P1 CHO-K1 cells, read-out: hS1P1 cAMP pEC50 (converted)) | EC50 ([2]; β-arrestin2 recruitment, S1P1 CHO-K1 cells, read-out: hS1P1 B-arrestin2 pEC50 (converted)) | Compound
<6.5 | <5 |  |  |  |  | COc1cccc(-c2noc(-c3ccc4c(c3)nnn4C(C)C)n2)c1 [Compound 228, 5-(1-isopropyl-1H-benzo[d][1,2,3]triazol-5-yl)-3-(3-methoxyphenyl)-1,2,4-oxadiazole]
<6.5 | >5 |  |  |  |  | Cc1cncc(-c2nc(-c3ccc4c(c3)nnn4C(C)C)no2)n1 [Compound 229, 3-(1-isopropyl-1H-benzo[d][1,2,3]triazol-5-yl)-5-(6-methylpyrazin-2-yl)-1,2,4-oxadiazole]
<6.5 | <5 | < 75% | < 75% |  |  | COc1ccc(-c2noc(-c3ccc4c(c3)nnn4C(C)C)n2)cc1OC [Compound 230, 3-(3,4-dimethoxyphenyl)-5-(1-isopropyl-1H-benzo[d][1,2,3]triazol-5-yl)-1,2,4-oxadiazole]
<6.5 | <5 | < 75% | > 75% |  |  | Cc1ccc(-c2noc(-c3ccc4c(c3)nnn4C(C)C)n2)cn1 [Compound 236, 5-[3-(6-methylpyridin-3-yl)-1,2,4-oxadiazol-5-yl]-1-(propan-2-yl)-1H-1,2,3-benzotriazole]
<6.5 | <5 | > 75% | > 75% |  |  | CC(C)n1nnc2cc(-c3noc(-c4ccccc4OC(F)(F)F)n3)ccc21 [Compound 240, 3-(1-isopropyl-1H-benzo[d][1,2,3]triazol-5-yl)-5-(2-(trifluoromethoxy)phenyl)-1,2,4-oxadiazole]
<6.5 | <5 | > 75% | > 75% |  |  | CC(C)n1nnc2cc(-c3nc(-c4ccccn4)no3)ccc21 [Compound 241, 1-(propan-2-yl)-5-[3-(pyridin-2-yl)-1,2,4-oxadiazol-5-yl]-1H-1,2,3-benzotriazole]
<6.5 | <5 | < 75% | < 75% |  |  | CCCn1nnc2cc(-c3nc(-c4cccc(C(F)(F)F)c4)no3)ccc21 [Compound 242, 1-propyl-5-{3-[3-(trifluoromethyl)phenyl]-1,2,4-oxadiazol-5-yl}-1H-1,2,3-benzotriazole]
<6.5 | <5 | > 75% | > 75% |  |  | Cc1cccc(C)c1-c1noc(-c2ccc3c(c2)nnn3C(C)C)n1 [Compound 243, 3-(2,6-dimethylphenyl)-5-(1-isopropyl-1H-benzo[d][1,2,3]triazol-5-yl)-1,2,4-oxadiazole]
>6.5 | >5 | > 75% | > 75% |  |  | CC(C)n1nnc2cc(-c3nc(-c4ccncc4)no3)ccc21 [Compound 244, 1-(propan-2-yl)-5-[3-(pyridin-4-yl)-1,2,4-oxadiazol-5-yl]-1H-1,2,3-benzotriazole]
>6.5 | >5 |  |  |  |  | CC(C)Oc1ccc(-c2nc(-c3ccc4c(c3)nnn4C(C)C)no2)cc1C(F)(F)F [Compound 246, 5-(4-isopropoxy-3-(trifluoromethyl)phenyl)-3-(1-isopropyl-1H-benzo[d][1,2,3]triazol-5-yl)-1,2,4-oxadiazole]
<6.5 | <5 |  |  |  |  | CC(C)n1nnc2cc(-c3noc(-c4ccc(-c5ccccc5)cc4)n3)ccc21 [Compound 248, 5-([1,1′-biphenyl]-4-yl)-3-(1-isopropyl-1H-benzo[d][1,2,3]triazol-5-yl)-1,2,4-oxadiazole]
<6.5 | <5 |  |  |  |  | CC(C)n1nnc2cc(-c3nc(-c4cncnc4)no3)ccc21 [Compound 249, 1-(propan-2-yl)-5-[3-(pyrimidin-5-yl)-1,2,4-oxadiazol-5-yl]-1H-1,2,3-benzotriazole]
<6.5 | <5 | < 75% | < 75% |  |  | COc1ccc(-c2coc(-c3ccc4c(c3)nnn4C(C)C)n2)cc1 [Compound 250, 5-[4-(4-methoxyphenyl)-1,3-oxazol-2-yl]-1-(propan-2-yl)-1H-1,2,3-benzotriazole]
<6.5 | <5 | < 75% | < 75% |  |  | COc1cccc(OC)c1-c1noc(-c2ccc3c(c2)nnn3C(C)C)n1 [Compound 251, 3-(2,6-dimethoxyphenyl)-5-(1-isopropylbenzotriazol-5-yl)-1,2,4-oxadiazole]
<6.5 | <5 | < 75% | < 75% |  |  | CC(C)n1nnc2cc(-c3noc(-c4ccc(F)cc4)n3)ccc21 [Compound 255, 5-(4-fluorophenyl)-3-(1-isopropylbenzotriazol-5-yl)-1,2,4-oxadiazole]
